Test results reported in US20250100968A1, “BICYCLIC-HETEROCYCLE DERIVATIVES AND RELATED USES” (CENTESSA PHARMACEUTICALS (UK) LIMITED, priority 2022, published 2025).

Molecular target: T1, human orexin type 2 receptor (hOX2R) (Homo sapiens, UniProt O43614)
T1 sequence (O43614 1-444): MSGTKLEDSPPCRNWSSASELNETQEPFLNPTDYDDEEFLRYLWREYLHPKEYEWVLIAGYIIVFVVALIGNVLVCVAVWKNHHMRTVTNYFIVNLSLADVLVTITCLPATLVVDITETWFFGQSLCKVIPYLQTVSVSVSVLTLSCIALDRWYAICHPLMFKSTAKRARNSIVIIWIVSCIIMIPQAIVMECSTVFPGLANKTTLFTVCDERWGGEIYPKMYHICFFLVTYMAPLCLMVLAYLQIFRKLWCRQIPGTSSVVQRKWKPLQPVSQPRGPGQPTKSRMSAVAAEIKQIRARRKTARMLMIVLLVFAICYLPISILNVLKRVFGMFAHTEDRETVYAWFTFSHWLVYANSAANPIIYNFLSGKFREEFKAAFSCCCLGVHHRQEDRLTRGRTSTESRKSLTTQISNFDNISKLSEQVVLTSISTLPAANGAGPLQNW
Test: cell-based
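Note: agonist activity in CHO cells stably expressing hOX2R, intracellular Ca2+ via Calcium 5 dye fluorescence area over 2 min, buffer-only as 0% and 10 nM orexin A as 100%.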

Description: Measurement of orexin type 2 receptor agonist activity. […] After removal of the medium, 50 μl of assay buffer 1 (0.1% bovine serum albumin (Sigma Aldrich), 20 mM HEPES (Molecular Dimensions), 250 mM probenecid (Sigma Aldrich), 1× Calcium 5 dye (Molecular Devices) in Hank's balanced salt solution (Invitrogen)) was added, and the cells were incubated for 60 min under the conditions of 37° C., 5% CO2. A test compound was dissolved in dimethyl sulfoxide (Sigma Aldrich) to 10 mM, and then diluted with assay buffer 2 (20 mM HEPES, Hank's balanced salt solution, 0.1% bovine serum albumin). For the reaction, a test compound solution (10 μl) was added using Fluorescent Imaging Plate Reader TETRA (FLIPR TETRA: manufactured by Molecular Devices), a fluorescence value (excitation wavelength 488 nm, measurement wavelength 570 nm) of each well was measured every one second for 2 min, and the agonist activity was determined using the area of the fluorescence value as an indicator of intracellular Ca^2+ concentration. The agonist activity of the test compound was calculated assuming that the fluorescence value of the well added with only the dilution buffer was 0% and the fluorescence value of the well added with 10 nM human orexin A (Tocris) buffer was 100%.

Row | SMILES | EC50 [nM]
1 | C[C@H](C#N)C(=O)N1CC2(CC2)[C@H](NS(=O)(=O)CF)[C@@H]1Cc1cccc(-c2cc(F)cc(F)c2)c1F [compound 62, N-((6S,7S)-5-((R)-2-cyanopropanoyl)-6-((2,3′,5′-trifluoro-[1,1′-biphenyl]-3-yl)methyl)-5-azaspiro[2.4]heptan-7-yl)-1-fluoromethanesulfonamide] | 1 to 10
2 | C[C@@H](NC(=O)N1CC2(CC2)[C@H](NS(=O)(=O)CF)[C@@H]1Cc1cccc(-c2cc(F)cc(F)c2)c1F)C(F)F [compound 4, (6S,7S)-N-((R)-1,1-difluoropropan-2-yl)-7-((fluoromethyl)sulfonamido)-6-((2,3′,5′-trifluoro-[1,1′-biphenyl]-3-yl)methyl)-5-azaspiro[2.4]heptane-5-carboxamide] | 1 to 10
3 | COC1CN(C(=O)N2CC3(CC3)[C@H](NS(=O)(=O)CF)[C@@H]2Cc2cc(F)cc(-c3ccccc3)c2F)C1 [compound 59, N-((6S,7S)-6-((2,5-difluoro-[1,1′-biphenyl]-3-yl)methyl)-5-(3-methoxyazetidine-1-carbonyl)-5-azaspiro[2.4]heptan-7-yl)-1-fluoromethanesulfonamide] | 1 to 10
4 | O=C(N1CC2(CC2)[C@H](NS(=O)(=O)CF)[C@@H]1Cc1cccc(-c2ccccc2)c1F)C1(CF)COC1 [compound 81, 1-fluoro-N-((6S,7S)-6-((2-fluoro-[1,1′-biphenyl]-3-yl)methyl)-5-(3-(fluoromethyl)oxetane-3-carbonyl)-5-azaspiro[2.4]heptan-7-yl)methanesulfonamide] | 1 to 10
5 | CC(F)(F)CNC(=O)N1CC2(CC2)[C@H](NS(=O)(=O)C(F)F)[C@@H]1Cc1cccc(-c2cc(F)cc(F)c2)c1F [compound 39, (6S,7S)-7-((difluoromethyl)sulfonamido)-N-(2,2-difluoropropyl)-6-((2,3′,5′-trifluoro-[1,1′-biphenyl]-3-yl)methyl)-5-azaspiro[2.4]heptane-5-carboxamide] | 1 to 10
6 | CO[C@H](C)C(=O)N1CC2(CC2)[C@H](NS(=O)(=O)C(F)F)[C@@H]1Cc1cccc(-c2cc(F)cc(F)c2)c1F [compound 64, 1,1-difluoro-N-((6S,7S)-5-((R)-2-methoxypropanoyl)-6-((2,3′,5′-trifluoro-[1,1′-biphenyl]-3-yl)methyl)-5-azaspiro[2.4]heptan-7-yl)methanesulfonamide] | 1 to 10
7 | CC[C@](C)(O)C(=O)N1CC2(CC2)[C@H](NS(=O)(=O)C(F)F)[C@@H]1Cc1cccc(-c2cc(F)cc(F)c2)c1F [compound 78, 1,1-difluoro-N-((6S,7S)-5-((S)-2-hydroxy-2-methylbutanoyl)-6-((2,3′,5′-trifluoro-[1,1′-biphenyl]-3-yl)methyl)-5-azaspiro[2.4]heptan-7-yl)methanesulfonamide] | 1 to 10
8 | CC(F)(F)CNC(=O)N1CC2(CC2)[C@H](NS(=O)(=O)CF)[C@@H]1Cc1cccc(-c2cc(F)cc(F)c2)c1F [compound 38, (6S,7S)-N-(2,2-difluoropropyl)-7-((fluoromethyl)sulfonamido)-6-((2,3′,5′-trifluoro-[1,1′-biphenyl]-3-yl)methyl)-5-azaspiro[2.4]heptane-5-carboxamide] | 1 to 10
9 | C[C@@](O)(CF)C(=O)N1CC2(CC2)[C@H](NS(=O)(=O)CF)[C@@H]1Cc1cccc(-c2cc(F)cc(F)c2)c1F [compound 83, 1-fluoro-N-((6S,7S)-5-((S)-3-fluoro-2-hydroxy-2-methylpropanoyl)-6-((2,3′,5′-trifluoro-[1,1′-biphenyl]-3-yl)methyl)-5-azaspiro[2.4]heptan-7-yl)methanesulfonamide] | 1 to 10
10 | N#C[C@@]1(C(=O)N2CC3(CC3)[C@H](NS(=O)(=O)CF)[C@@H]2Cc2cccc(-c3cccc(F)c3)c2F)CCO1 [compound 45, N-((6S,7S)-5-((R)-2-cyanooxetane-2-carbonyl)-6-((2,3′-difluoro-[1,1′-biphenyl]-3-yl)methyl)-5-azaspiro[2.4]heptan-7-yl)-1-fluoromethanesulfonamide] | 1 to 10
11 | O=C([C@H](O)CF)N1CC2(CC2)[C@H](NS(=O)(=O)C(F)F)[C@@H]1Cc1cccc(-c2cc(F)cc(F)c2)c1F [compound 8, 1,1-difluoro-N-((6S,7S)-5-((S)-3-fluoro-2-hydroxypropanoyl)-6-((2,3′,5′-trifluoro-[1,1′-biphenyl]-3-yl)methyl)-5-azaspiro[2.4]heptan-7-yl)methanesulfonamide] | 1 to 10
12 | CC(C)(F)CNC(=O)N1CC2(CC2)[C@H](NS(=O)(=O)CF)[C@@H]1Cc1cccc(-c2cccc(F)c2)c1F [compound 73, (6S,7S)-6-((2,3′-difluoro-[1,1′-biphenyl]-3-yl)methyl)-N-(2-fluoro-2-methylpropyl)-7-((fluoromethyl)sulfonamido)-5-azaspiro[2.4]heptane-5-carboxamide] | 1 to 10
13 | C[C@@H](F)S(=O)(=O)N[C@@H]1[C@H](Cc2cc(F)cc(-c3cc(F)cc(F)c3)c2F)N(C(=O)[C@H]2CCO2)CC12CC2 [compound 57, (S)-1-fluoro-N-((6S,7S)-5-((R)-oxetane-2-carbonyl)-6-((2,3′,5,5′-tetrafluoro-[1,1′-biphenyl]-3-yl)methyl)-5-azaspiro[2.4]heptan-7-yl)ethane-1-sulfonamide] | 1 to 10
14 | O=C([C@@H](O)C1CC1)N1CC2(CC2)[C@H](NS(=O)(=O)CF)[C@@H]1Cc1cccc(-c2cc(F)cc(F)c2)c1F [compound 3, N-((6S,7S)-5-((S)-2-cyclopropyl-2-hydroxyacetyl)-6-((2,3′,5′-trifluoro-[1,1′-biphenyl]-3-yl)methyl)-5-azaspiro[2.4]heptan-7-yl)-1-fluoromethanesulfonamide] | 10 to 100
15 | C[C@@H](NC(=O)N1CC2(CC2)[C@H](NS(=O)(=O)C(F)F)[C@@H]1Cc1cccc(-c2cc(F)cc(F)c2)c1F)C(F)F [compound 60, (6S,7S)-7-((difluoromethyl)sulfonamido)-N-((R)-1,1-difluoropropan-2-yl)-6-((2,3′,5′-trifluoro-[1,1′-biphenyl]-3-yl)methyl)-5-azaspiro[2.4]heptane-5-carboxamide] | 1 to 10

Second part, the compound after the results:

Row | EC50 [nM] | SMILES
16 | 1 to 10 | O=C([C@H]1CCO1)N1CC2(CC2)[C@H](NS(=O)(=O)C2(F)CC2)[C@@H]1Cc1cc(F)cc(-c2ccccc2)c1F [compound 87, N-((6S,7S)-6-((2,5-difluoro-[1,1′-biphenyl]-3-yl)methyl)-5-((R)-oxetane-2-carbonyl)-5-azaspiro[2.4]heptan-7-yl)-1-fluorocyclopropane-1-sulfonamide]
17 | 0.0631 to 1 | N#CC1(C(=O)N2CC3(CC3)[C@H](NS(=O)(=O)CF)[C@@H]2Cc2cccc(-c3ccccc3)c2F)CC1 [compound 5, N-((6S,7S)-5-(1-cyanocyclopropane-1-carbonyl)-6-((2-fluoro-[1,1′-biphenyl]-3-yl)methyl)-5-azaspiro[2.4]heptan-7-yl)-1-fluoromethanesulfonamide]
18 | 0.0631 to 1 | C[C@](O)(C(=O)N1CC2(CC2)[C@H](NS(=O)(=O)CF)[C@@H]1Cc1cccc(-c2cccc(F)c2)c1F)C(F)F [compound 6, N-((6S,7S)-5-((S)-3,3-difluoro-2-hydroxy-2-methylpropanoyl)-6-((2,3′-difluoro-[1,1′-biphenyl]-3-yl)methyl)-5-azaspiro[2.4]heptan-7-yl)-1-fluoromethanesulfonamide]
19 | 0.0631 to 1 | N#C[C@@]1(C(=O)N2CC3(CC3)[C@H](NS(=O)(=O)CF)[C@@H]2Cc2cccc(-c3cc(F)ccc3F)c2F)CCO1 [compound 79, N-((6S,7S)-5-((R)-2-cyanooxetane-2-carbonyl)-6-((2,2′,5′-trifluoro-[1,1′-biphenyl]-3-yl)methyl)-5-azaspiro[2.4]heptan-7-yl)-1-fluoromethanesulfonamide]
20 | 0.0631 to 1 | N#C[C@]1(C(=O)N2CC3(CC3)[C@H](NS(=O)(=O)CF)[C@@H]2Cc2cccc(-c3cc(F)ccc3F)c2F)CCO1 [compound 80, N-((6S,7S)-5-((S)-2-cyanooxetane-2-carbonyl)-6-((2,2′,5′-trifluoro-[1,1′-biphenyl]-3-yl)methyl)-5-azaspiro[2.4]heptan-7-yl)-1-fluoromethanesulfonamide]
21 | 0.0631 to 1 | O=C([C@H]1CCO1)N1CC2(CC2)[C@H](NS(=O)(=O)C2(F)CC2)[C@@H]1Cc1cccc(-c2ccccc2)c1F [compound 10, 1-fluoro-N-((6S,7S)-6-((2-fluoro-[1,1′-biphenyl]-3-yl)methyl)-5-((R)-oxetane-2-carbonyl)-5-azaspiro[2.4]heptan-7-yl)cyclopropane-1-sulfonamide]
22 | 0.0631 to 1 | O=C(NCC(F)F)N1CC2(CC2)[C@H](NS(=O)(=O)C(F)F)[C@@H]1Cc1cccc(-c2cc(F)cc(F)c2)c1F [compound 28, (6S,7S)-N-(2,2-difluoroethyl)-7-((difluoromethyl)sulfonamido)-6-((2,3′,5′-trifluoro-[1,1′-biphenyl]-3-yl)methyl)-5-azaspiro[2.4]heptane-5-carboxamide]
23 | 0.0631 to 1 | C[C@H](CF)NC(=O)N1CC2(CC2)[C@H](NS(=O)(=O)CF)[C@@H]1Cc1cccc(-c2cc(F)cc(F)c2)c1F [compound 61, (6S,7S)-7-((fluoromethyl)sulfonamido)-N-((R)-1-fluoropropan-2-yl)-6-((2,3′,5′-trifluoro-[1,1′-biphenyl]-3-yl)methyl)-5-azaspiro[2.4]heptane-5-carboxamide]
24 | 0.0631 to 1 | N#CC1(C(=O)N2CC3(CC3)[C@H](NS(=O)(=O)CF)[C@@H]2Cc2cccc(-c3ccccc3)c2F)COC1 [compound 34, N-((6S,7S)-5-(3-cyanooxetane-3-carbonyl)-6-((2-fluoro-[1,1′-biphenyl]-3-yl)methyl)-5-azaspiro[2.4]heptan-7-yl)-1-fluoromethanesulfonamide]
